Measurements: ChEMBL document CHEMBL3868615, “Decahydrobenzoquinolin-5-one sigma receptor ligands: Divergent development of both sigma 1 and sigma 2 receptor selective examples” (Bioorg Med Chem Lett, 2016)

Legend:
[1] = target: Alpha-1D adrenergic receptor (Homo sapiens, UniProt P25100); test: Displacement of [3H]Prazosin from human Alpha1D receptor measured after 90 mins by microbeta scintillation counting method
[2] = target: 5-hydroxytryptamine receptor 3A (Homo sapiens, UniProt P46098); test: Displacement of [3H]GR65630 from human 5-HT3 receptor expressed in HEK-T cells measured after 90 mins by microbeta scintillation counting method; format: cell-based
5-hydroxytryptamine receptor 3A, sequence (P46098 whole entry): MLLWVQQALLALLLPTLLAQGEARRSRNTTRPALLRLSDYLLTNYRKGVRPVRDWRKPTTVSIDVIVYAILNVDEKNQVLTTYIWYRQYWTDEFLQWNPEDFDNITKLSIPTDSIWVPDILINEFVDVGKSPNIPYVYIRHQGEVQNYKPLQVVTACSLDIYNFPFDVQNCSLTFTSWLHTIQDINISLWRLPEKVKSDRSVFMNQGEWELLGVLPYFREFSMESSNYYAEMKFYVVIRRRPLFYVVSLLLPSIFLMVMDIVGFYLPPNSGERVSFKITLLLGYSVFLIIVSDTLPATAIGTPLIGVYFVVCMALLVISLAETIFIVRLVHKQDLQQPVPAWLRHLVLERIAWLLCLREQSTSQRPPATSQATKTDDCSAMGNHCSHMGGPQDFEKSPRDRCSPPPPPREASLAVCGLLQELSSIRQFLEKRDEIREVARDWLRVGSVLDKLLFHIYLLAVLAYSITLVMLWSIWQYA

[3] = target: Sigma non-opioid intracellular receptor 1 (Cavia porcellus) (UniProt Q60492); conditions: 10 uM
Sigma non-opioid intracellular receptor 1 (Cavia porcellus), sequence (Q60492 whole entry): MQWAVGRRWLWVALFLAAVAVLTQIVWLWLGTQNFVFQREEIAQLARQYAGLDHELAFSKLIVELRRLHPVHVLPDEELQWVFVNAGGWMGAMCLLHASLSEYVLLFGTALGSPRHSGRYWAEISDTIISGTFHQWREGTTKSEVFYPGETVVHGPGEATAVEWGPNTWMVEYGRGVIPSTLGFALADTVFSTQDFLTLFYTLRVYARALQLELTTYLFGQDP

[4] = target: 5-hydroxytryptamine receptor 6 (Homo sapiens, UniProt P50406); test: Displacement of [3H]LSD from human 5-HT6 receptor expressed in HEK cells measured after 90 mins by microbeta scintillation counting method; format: cell-based, HEK293
[5] = target: Alpha-1B adrenergic receptor (Homo sapiens, UniProt P35368); test: Displacement of [3H]Prazosin from human Alpha1B receptor expressed in HEK-T cells measured after 90 mins by microbeta scintillation counting method; format: cell-based
Alpha-1B adrenergic receptor, sequence (P35368 whole entry): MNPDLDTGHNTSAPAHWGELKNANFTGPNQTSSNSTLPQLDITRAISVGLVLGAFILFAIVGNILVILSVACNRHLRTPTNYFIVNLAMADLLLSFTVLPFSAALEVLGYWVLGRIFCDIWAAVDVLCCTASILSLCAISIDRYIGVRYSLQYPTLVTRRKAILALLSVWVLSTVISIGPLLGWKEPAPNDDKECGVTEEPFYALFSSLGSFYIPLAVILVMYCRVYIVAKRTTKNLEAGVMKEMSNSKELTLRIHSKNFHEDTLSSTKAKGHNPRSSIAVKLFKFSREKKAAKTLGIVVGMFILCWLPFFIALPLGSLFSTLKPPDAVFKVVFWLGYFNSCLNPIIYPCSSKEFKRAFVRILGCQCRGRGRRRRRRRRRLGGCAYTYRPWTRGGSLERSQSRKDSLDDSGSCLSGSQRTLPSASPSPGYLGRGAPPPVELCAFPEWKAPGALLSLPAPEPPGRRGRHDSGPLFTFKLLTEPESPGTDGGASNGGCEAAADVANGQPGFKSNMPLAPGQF

[6] = target: Muscarinic acetylcholine receptor M2 (Homo sapiens, UniProt P08172); test: Binding affinity to human M2 receptor expressed in CHO cells measured after 90 mins by radioligand binding assay; format: cell-based
[7] = Displacement of [3H]DTG from sigma2 receptor in rat PC12 cells measured after 90 mins by microbeta scintillation counting method; format: cell-based; conditions: pc-12
[8] = Displacement of [3H]Muscimol from GABAA receptor in rat brain measured after 90 mins by microbeta scintillation counting method; format: tissue-based
[9] = target: Sodium-dependent dopamine transporter (Homo sapiens, UniProt Q01959); test: Displacement of [3H]WIN35428 from human DAT expressed in HEK cells measured after 90 mins by microbeta scintillation counting method; format: cell-based, HEK293
PC-12 = test: Selectivity ratio of Ki for sigma2 receptor in rat PC12 cells to Ki for guinea pig sigma1 receptor; format: cell-based
[10] = target: 5-hydroxytryptamine receptor 2B (Homo sapiens, UniProt P41595); test: Displacement of [3H]LSD from human 5-HT2B receptor expressed in HEK cells measured after 90 mins by microbeta scintillation counting method; format: cell-based, HEK293
D(1A) dopamine receptor = D(1A) dopamine receptor (Homo sapiens, UniProt P21728); test: Displacement of [3H]SCH23390 from human D1 receptor expressed in HEK-T cells measured after 90 mins by microbeta scintillation counting method; format: cell-based
[11] = target: 5-hydroxytryptamine receptor 1D (Homo sapiens, UniProt P28221); test: Displacement of [3H]5-CT from human 5-HT1D receptor expressed in HEK-T cells measured after 90 mins by microbeta scintillation counting method; format: cell-based
[12] = target: 5-hydroxytryptamine receptor 1E (Homo sapiens, UniProt P28566); test: Displacement of [3H]5-HT from human 5-HT1E receptor expressed in HEK cells measured after 90 mins by microbeta scintillation counting method; format: cell-based, HEK293
5-hydroxytryptamine receptor 1E, sequence (P28566 whole entry): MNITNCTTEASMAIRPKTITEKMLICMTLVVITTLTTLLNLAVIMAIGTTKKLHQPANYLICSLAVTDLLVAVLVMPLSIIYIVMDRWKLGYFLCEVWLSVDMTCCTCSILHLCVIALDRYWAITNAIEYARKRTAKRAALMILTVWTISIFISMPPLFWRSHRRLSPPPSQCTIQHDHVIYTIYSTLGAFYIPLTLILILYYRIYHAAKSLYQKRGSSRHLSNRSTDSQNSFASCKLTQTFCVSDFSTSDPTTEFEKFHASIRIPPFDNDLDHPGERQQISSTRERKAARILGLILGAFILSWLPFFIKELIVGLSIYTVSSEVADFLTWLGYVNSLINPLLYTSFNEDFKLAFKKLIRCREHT

[13] = target: 5-hydroxytryptamine receptor 2A (Homo sapiens, UniProt P28223); test: Displacement of [3H]Ketanserin from 5-HT2A receptor (unknown origin) measured after 90 mins by microbeta scintillation counting method
5-hydroxytryptamine receptor 2A, sequence (P28223 whole entry): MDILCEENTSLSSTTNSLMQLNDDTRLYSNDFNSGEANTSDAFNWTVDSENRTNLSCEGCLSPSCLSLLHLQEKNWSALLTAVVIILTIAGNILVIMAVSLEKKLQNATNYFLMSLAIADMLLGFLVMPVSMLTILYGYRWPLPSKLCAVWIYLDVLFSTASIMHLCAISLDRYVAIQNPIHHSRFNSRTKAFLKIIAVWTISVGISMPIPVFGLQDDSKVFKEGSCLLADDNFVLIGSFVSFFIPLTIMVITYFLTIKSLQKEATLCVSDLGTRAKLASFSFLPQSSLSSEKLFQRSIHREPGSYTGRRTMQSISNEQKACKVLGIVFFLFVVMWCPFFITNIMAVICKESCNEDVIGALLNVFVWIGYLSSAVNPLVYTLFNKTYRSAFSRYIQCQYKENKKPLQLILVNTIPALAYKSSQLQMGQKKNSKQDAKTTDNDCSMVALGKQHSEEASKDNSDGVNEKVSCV

[14] = target: 5-hydroxytryptamine receptor 1B (Homo sapiens, UniProt P28222); test: Displacement of [3H]5-CT from human 5-HT1B receptor expressed in HEK cells measured after 90 mins by microbeta scintillation counting method; format: cell-based, HEK293
[15] = target: Alpha-2B adrenergic receptor (Homo sapiens, UniProt P18089); test: Displacement of [3H]Rauwolscine from human Alpha2B receptor expressed in HEK-T cells measured after 90 mins by microbeta scintillation counting method; format: cell-based
Histamine H4 receptor = Histamine H4 receptor (Homo sapiens, UniProt Q9H3N8); test: Displacement of [3H]Histamine from H4 receptor (unknown origin) measured after 90 mins by microbeta scintillation counting method
Histamine H4 receptor, sequence (Q9H3N8 whole entry): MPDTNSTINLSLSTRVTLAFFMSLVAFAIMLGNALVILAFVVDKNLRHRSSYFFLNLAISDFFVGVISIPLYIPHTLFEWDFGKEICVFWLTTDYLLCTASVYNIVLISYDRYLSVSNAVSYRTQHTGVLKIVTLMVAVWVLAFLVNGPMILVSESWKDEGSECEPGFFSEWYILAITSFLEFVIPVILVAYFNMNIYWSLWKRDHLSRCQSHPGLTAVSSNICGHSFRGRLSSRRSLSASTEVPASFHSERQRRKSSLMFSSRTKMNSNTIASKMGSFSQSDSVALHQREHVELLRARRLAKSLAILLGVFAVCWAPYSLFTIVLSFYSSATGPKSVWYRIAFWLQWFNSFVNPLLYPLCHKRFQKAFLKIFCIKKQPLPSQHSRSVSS

[16] = target: Beta-2 adrenergic receptor (Homo sapiens, UniProt P07550); test: Displacement of [3H]CGP12177 from human beta2 receptor expressed in HEK Flp-In cells measured after 90 mins by microbeta scintillation counting method; format: cell-based, HEK293
[17] = target: 5-hydroxytryptamine receptor 2C (Homo sapiens, UniProt P28335); test: Displacement of [3H]Mesulergine from human 5-HT2C receptor expressed in Flp-IN HEK cells measured after 90 mins by microbeta scintillation counting method; format: cell-based, HEK293
5-hydroxytryptamine receptor 2C, sequence (P28335 whole entry): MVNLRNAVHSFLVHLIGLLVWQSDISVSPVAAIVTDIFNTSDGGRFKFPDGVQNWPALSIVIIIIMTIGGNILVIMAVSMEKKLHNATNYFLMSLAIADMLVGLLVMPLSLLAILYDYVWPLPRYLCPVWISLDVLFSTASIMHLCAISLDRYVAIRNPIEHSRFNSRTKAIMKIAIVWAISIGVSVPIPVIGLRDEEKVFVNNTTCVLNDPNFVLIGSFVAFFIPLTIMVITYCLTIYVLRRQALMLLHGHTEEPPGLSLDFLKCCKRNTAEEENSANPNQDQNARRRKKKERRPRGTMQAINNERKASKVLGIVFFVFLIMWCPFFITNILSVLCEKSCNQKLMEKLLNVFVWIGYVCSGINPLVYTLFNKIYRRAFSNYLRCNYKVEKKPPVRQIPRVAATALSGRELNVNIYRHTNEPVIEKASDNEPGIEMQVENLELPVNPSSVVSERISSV

D(3) dopamine receptor = D(3) dopamine receptor (Homo sapiens, UniProt P35462); test: Displacement of [3H]N-methylspiperone from D3 receptor (unknown origin) expressed in HEK-T cells measured after 90 mins by microbeta scintillation counting method; format: cell-based
Histamine H3 receptor = Histamine H3 receptor (Homo sapiens, UniProt Q9Y5N1); test: Displacement of [3H]alpha-methylhistamine from human H3 receptor expressed in HEK Flp-In cells measured after 90 mins by microbeta scintillation counting method; format: cell-based, HEK293
Histamine H2 receptor = Histamine H2 receptor (Homo sapiens, UniProt P25021); test: Binding affinity to H2 receptor (unknown origin) expressed in HEKT cells measured after 90 mins by radioligand binding assay; format: cell-based
[18] = target: Kappa-type opioid receptor (Homo sapiens, UniProt P41145); test: Displacement of [3H]U69593 from KOR (unknown origin) expressed in HEKT cells measured after 90 mins by microbeta scintillation counting method; format: cell-based
[19] = target: Alpha-2C adrenergic receptor (Homo sapiens, UniProt P18825); test: Displacement of [3H]Rauwolscine from human Alpha2C receptor expressed in MDCK cells measured after 90 mins by microbeta scintillation counting method; format: cell-based
Alpha-2C adrenergic receptor, sequence (P18825 whole entry): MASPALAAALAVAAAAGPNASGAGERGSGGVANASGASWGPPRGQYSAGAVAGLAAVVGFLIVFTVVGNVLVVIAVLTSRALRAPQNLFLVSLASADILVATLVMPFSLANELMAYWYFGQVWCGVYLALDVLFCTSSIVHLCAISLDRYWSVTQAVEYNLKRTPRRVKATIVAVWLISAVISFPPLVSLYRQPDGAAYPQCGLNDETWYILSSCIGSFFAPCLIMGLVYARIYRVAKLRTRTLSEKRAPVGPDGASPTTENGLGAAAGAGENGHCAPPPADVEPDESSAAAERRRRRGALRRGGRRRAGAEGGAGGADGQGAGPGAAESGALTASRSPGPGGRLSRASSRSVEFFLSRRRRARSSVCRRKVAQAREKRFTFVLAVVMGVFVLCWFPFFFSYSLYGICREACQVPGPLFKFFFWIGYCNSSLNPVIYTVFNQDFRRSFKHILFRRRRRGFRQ

[20] = target: 5-hydroxytryptamine receptor 7 (Homo sapiens, UniProt P34969); test: Displacement of [3H]LSD from human 5-HT7 receptor expressed in HEK cells measured after 90 mins by microbeta scintillation counting method; format: cell-based, HEK293
D(4) dopamine receptor = D(4) dopamine receptor (Homo sapiens, UniProt P21917); test: Displacement of [3H]N-methylspiperone from human D4 receptor measured after 90 mins by microbeta scintillation counting method
D(4) dopamine receptor, sequence (P21917 whole entry): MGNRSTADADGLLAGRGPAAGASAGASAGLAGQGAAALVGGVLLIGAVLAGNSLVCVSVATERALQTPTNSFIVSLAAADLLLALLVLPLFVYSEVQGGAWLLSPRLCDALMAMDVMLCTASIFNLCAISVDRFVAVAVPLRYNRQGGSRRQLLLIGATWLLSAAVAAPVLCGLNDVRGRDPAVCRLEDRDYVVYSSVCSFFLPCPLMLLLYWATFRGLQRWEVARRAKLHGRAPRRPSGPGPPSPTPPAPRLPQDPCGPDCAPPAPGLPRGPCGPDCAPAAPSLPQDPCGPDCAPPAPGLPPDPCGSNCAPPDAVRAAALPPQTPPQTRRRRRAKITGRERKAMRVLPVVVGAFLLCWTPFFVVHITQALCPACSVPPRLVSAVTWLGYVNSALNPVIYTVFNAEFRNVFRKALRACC

[21] = target: Sodium-dependent serotonin transporter (Homo sapiens, UniProt P31645); test: Displacement of [3H]Citalopram from human SERT expressed in HEK cells measured after 90 mins by microbeta scintillation counting method; format: cell-based, HEK293
Histamine H1 receptor = Histamine H1 receptor (Homo sapiens, UniProt P35367); test: Displacement of [3H]Pyrilamine from human H1 receptor expressed in HEK cells measured after 90 mins by microbeta scintillation counting method; format: cell-based, HEK293
Histamine H1 receptor, sequence (P35367 whole entry): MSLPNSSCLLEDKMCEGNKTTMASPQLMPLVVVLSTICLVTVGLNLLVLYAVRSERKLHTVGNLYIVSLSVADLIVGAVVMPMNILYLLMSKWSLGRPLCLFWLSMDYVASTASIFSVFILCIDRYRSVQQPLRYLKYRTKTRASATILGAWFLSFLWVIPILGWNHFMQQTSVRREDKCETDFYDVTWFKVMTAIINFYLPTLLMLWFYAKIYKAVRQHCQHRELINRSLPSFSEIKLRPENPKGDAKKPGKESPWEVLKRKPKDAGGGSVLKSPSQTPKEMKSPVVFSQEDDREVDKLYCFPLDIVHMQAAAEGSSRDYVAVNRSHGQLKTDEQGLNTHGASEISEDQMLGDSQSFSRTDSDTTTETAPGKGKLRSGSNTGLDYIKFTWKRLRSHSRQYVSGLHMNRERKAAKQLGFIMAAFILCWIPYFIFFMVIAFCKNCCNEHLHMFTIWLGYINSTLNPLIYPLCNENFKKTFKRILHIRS

[22] = target: T1, 5-hydroxytryptamine receptor 1A (Homo sapiens, UniProt P08908); test: Displacement of [3H]Way100635 from human 5-HT1A receptor expressed in CHO cells measured after 90 mins by microbeta scintillation counting method; format: cell-based
T1 sequence (P08908 whole entry): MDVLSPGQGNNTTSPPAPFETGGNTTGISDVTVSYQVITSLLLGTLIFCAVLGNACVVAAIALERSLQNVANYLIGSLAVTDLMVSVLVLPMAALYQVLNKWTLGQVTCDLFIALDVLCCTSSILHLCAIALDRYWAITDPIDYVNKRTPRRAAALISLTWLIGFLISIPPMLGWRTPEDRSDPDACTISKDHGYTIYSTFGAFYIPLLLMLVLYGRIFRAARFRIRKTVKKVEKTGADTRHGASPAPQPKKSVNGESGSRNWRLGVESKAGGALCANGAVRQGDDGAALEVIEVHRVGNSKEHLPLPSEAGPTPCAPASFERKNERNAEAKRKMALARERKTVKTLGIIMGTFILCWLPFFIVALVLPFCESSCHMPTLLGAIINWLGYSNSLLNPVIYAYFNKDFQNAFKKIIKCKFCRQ

Alpha-1D adrenergic receptor, sequence (P25100 whole entry): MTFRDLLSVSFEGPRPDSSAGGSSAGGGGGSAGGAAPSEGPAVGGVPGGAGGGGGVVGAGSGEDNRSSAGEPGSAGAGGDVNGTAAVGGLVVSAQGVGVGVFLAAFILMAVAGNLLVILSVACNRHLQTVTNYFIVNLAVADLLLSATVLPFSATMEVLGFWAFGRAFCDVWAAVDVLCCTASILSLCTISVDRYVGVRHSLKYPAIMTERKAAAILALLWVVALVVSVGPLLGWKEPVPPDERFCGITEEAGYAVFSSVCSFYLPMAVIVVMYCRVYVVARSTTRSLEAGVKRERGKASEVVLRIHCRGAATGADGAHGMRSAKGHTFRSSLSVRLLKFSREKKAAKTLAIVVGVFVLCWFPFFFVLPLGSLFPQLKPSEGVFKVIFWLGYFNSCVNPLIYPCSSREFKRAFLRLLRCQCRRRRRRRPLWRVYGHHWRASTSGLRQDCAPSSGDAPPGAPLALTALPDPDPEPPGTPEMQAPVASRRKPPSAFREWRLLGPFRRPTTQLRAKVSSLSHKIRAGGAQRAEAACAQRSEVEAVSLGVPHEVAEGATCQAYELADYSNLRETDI

| Compound | Ki [1] | Ki [2] | inhibition [3] | Ki [4] | Ki [5] | Ki [6] | Ki [7] | Ki [8] | Ki [9] | Ratio Ki (PC-12) | Ki [10] | Ki (D(1A) dopamine receptor) | Ki [11] | Ki [12] | Ki [13] | Ki [14] | Ki [15] | Ki (Histamine H4 receptor) | Ki [16] | Ki [17] | further results |
| --- | --- | --- | --- | --- | --- | --- | --- | --- | --- | --- | --- | --- | --- | --- | --- | --- | --- | --- | --- | --- | --- |
| CCCN1CC[C@H]2c3cc4ccc(C(F)(F)F)cc4nc3[C@H](CC)[C@H]3CCC[C@@H]1[C@@H]32 | > 10 µM | > 10 µM | > 50% | > 10 µM | > 10 µM | > 10 µM | 0.015 µM | > 10 µM | > 10 µM | 0.04 | > 10 µM | > 10 µM | > 10 µM | > 10 µM | > 10 µM | > 10 µM | 1.04 µM | > 10 µM | > 10 µM | > 10 µM | Ki (D(3) dopamine receptor): > 10 µM; Ki (Histamine H3 receptor): > 10 µM; Ki (Histamine H2 receptor): > 10 µM; Ki [18]: 0.416 µM; Ki [19]: 1.04 µM; Ki [20]: > 10 µM; Ki (D(4) dopamine receptor): > 10 µM; Ki [21]: > 10 µM; Ki (Histamine H1 receptor): > 10 µM; Ki [22]: > 10 µM |
| CN1CC[C@H]2CC(=O)[C@H](Cc3ccccc3)[C@H]3CCC[C@@H]1[C@H]23 | > 10 µM | > 10 µM | > 50% | > 10 µM | > 10 µM | > 10 µM | 0.148 µM | > 10 µM | 2.18 µM | 98.7 | 1.91 µM | > 10 µM | > 10 µM | > 10 µM | > 10 µM | > 10 µM | > 10 µM | > 10 µM | > 10 µM | 1.68 µM | Ki (D(3) dopamine receptor): > 10 µM; Ki (Histamine H3 receptor): 0.814 µM; Ki (Histamine H2 receptor): > 10 µM; Ki [18]: > 10 µM; Ki [19]: > 10 µM; Ki [20]: > 10 µM; Ki (D(4) dopamine receptor): > 10 µM; Ki [21]: > 10 µM; Ki (Histamine H1 receptor): > 10 µM; Ki [22]: > 10 µM |
